Assay results from US20080261994A1, “CYCLOPROPANE COMPOUNDS AND PHARMACEUTICAL USE THEREOF” (Japan Tobacco Inc., priority 2003, published 2008).
Read-outs that look alike come from different tables or passages of the source.

Tests used:
Format in all cases: biochemical
[1] = target: T1, Recombinant Human MMP-13 (Homo sapiens, UniProt P45452); test: MMP-13 inhibitory activity (MMP-13 specific fluorescent substrate with quencher)
T1 construct: purchased R&D systems 511-MM
Method in brief: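 Recombinant human MMP-13 with test compound, reaction started with quenched fluorogenic peptide 7-MCA-Pro-CHA-Gly-NVal-His-Ala-DPA in Tris-HCl buffer, 1 h at 25 °C, stopped with acetic acid. Fluorescence at Ex 325/Em 405 nm; % inhibition versus enzyme-free and inhibitor-free wells, reported as IC50 (μM).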

[2] = target: T2, MMP-1 (Homo sapiens, UniProt P03956); test: MMP-1 inhibitory action (Type I collagen Activity Measurement kit, FITC-labeled collagen type I)
T2 sequence (P03956 100-469): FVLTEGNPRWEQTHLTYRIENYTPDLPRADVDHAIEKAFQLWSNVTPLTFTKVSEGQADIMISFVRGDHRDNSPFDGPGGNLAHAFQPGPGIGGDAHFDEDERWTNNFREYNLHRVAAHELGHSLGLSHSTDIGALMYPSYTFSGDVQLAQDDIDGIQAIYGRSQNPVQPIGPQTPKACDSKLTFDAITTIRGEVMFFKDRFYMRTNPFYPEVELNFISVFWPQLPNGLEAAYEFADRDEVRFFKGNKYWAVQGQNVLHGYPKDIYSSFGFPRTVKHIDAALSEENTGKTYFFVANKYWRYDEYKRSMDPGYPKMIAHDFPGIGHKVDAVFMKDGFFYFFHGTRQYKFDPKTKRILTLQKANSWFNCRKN

[3] = target: T3, aggrecanase-1 (Homo sapiens, UniProt O75173); test: Aggrecanase-1 inhibitory action (Particle Assay, GAG release from aggrecan-containing polyacrylamide particles)
T3 sequence (O75173 213-837): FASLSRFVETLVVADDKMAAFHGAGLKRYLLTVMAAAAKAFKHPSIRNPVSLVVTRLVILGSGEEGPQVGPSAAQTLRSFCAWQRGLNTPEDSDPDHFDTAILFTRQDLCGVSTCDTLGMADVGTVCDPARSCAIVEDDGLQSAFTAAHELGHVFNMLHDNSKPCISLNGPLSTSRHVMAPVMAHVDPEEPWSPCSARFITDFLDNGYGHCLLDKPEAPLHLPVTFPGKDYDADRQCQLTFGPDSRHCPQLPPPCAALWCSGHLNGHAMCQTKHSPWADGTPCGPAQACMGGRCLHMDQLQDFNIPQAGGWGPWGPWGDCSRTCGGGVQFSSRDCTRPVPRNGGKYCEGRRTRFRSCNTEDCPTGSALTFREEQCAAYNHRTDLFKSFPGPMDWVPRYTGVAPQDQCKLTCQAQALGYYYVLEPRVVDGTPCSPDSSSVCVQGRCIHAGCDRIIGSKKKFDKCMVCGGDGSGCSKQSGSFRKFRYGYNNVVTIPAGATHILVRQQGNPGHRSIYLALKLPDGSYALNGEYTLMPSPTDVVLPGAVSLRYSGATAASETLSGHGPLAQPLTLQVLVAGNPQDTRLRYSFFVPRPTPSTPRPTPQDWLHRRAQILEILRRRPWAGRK
Method in brief: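 Enzyme and compound incubated with aggrecan-containing polyacrylamide particles in Tris-HCl buffer at 37° C for 15 h. Released GAG in supernatant measured with 1,9-dimethylmethylene blue at 595 nm against chondroitin sulfate standard; % inhibition from enzyme-free and inhibitor-free wells, reported as TC50 (μM).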

[4] = Recombinant Human MMP-13, fluorescent substrate, 25° C. for 1 h, read-out: IC50 MMP13 (Experimental Example 3)
[5] = MMP-1 inhibitory action, FITC-labeled collagen type I, 37° C. for 3 hr, read-out: IC50 MMP1 (Experimental Example 2)
[6] = aggrecanase-1 inhibitory action, read-out: IC50 AG1 (Experimental Example 1)
[7] = Experimental Example 3, read-out: IC50 MMP13
[8] = Experimental Example 2, read-out: IC50 MMP1
[9] = Experimental Example 1, read-out: IC50 AG1

Structure (SMILES)	IC50 [1, 4]	IC50 [2, 5]	IC50 [3, 6]	IC50 [1, 7]	IC50 [2, 8]	IC50 [3, 9]
C[C@]1(c2ccccc2)C[C@@]1(NS(=O)(=O)c1ccc(-c2ccc(Cl)cc2)s1)C(=O)O [Example 2-101]	< 1 µM	≥ 1 µM	< 0.1 µM			
Cc1ccc(-c2ccc(S(=O)(=O)NC3(C(=O)O)CC3c3ccccc3)s2)cc1 (stereo not drawn) [Example 2-20]	< 0.1 µM	≥ 1 µM	< 1 µM			
O=C(O)C1(NS(=O)(=O)c2ccc(-c3ccc(Cl)cc3)s2)CC1c1ccccc1OCCO (stereo not drawn) [Example 1-138]	< 1 µM	≥ 1 µM	< 0.1 µM			
C[C@]1(c2ccccc2)C[C@@]1(NS(=O)(=O)c1ccc(-c2ccncc2)s1)C(=O)O [Example 2-526]				≥ 1 µM	≥ 1 µM	≥ 1 µM
CC1[C@H](c2ccccc2)[C@]1(NS(=O)(=O)c1ccc(-c2ccc(Cl)c(F)c2)s1)C(=O)O (stereo partly drawn) [Example 2-435]				< 0.1 µM	< 1 µM	< 0.1 µM
CC1[C@H](c2ccccc2)[C@]1(NS(=O)(=O)c1ccc(Br)s1)C(=O)O (stereo partly drawn) [Example 2-427]				≥ 1 µM	< 1 µM	≥ 10 µM
O=C(c1cccc(Cl)c1)N1CCN(S(=O)(=O)NC2(C(=O)O)CC2c2ccccc2)CC1 (stereo not drawn) [Example 2-160]	≥ 10 µM	≥ 10 µM	≥ 10 µM			
O=C(O)[C@]1(NS(=O)(=O)c2ccc(-c3cc(-c4ccccc4)on3)s2)C[C@@H]1c1ccccc1 [Example 2-114]	< 0.1 µM	< 1 µM	≥ 1 µM			
CC(O)c1cnn(-c2ccc(S(=O)(=O)N[C@@]3(C(=O)O)C(C)[C@@H]3c3ccccc3)s2)c1 (stereo partly drawn) [Example 2-547]				< 0.1 µM	< 0.1 µM	< 0.1 µM
C[C@]1(c2ccccc2)C[C@@]1(NS(=O)(=O)c1ccc(-c2ccc(F)c(O)c2)s1)C(=O)O [Example 2-600]				< 1 µM	≥ 1 µM	< 1 µM
O=C(O)COc1ccccc1C1CC1(NS(=O)(=O)c1ccc(-c2ccc(Cl)cc2)s1)C(=O)O (stereo not drawn) [Example 1-139]	< 1 µM	≥ 10 µM	< 0.1 µM			
Cc1nc(-c2ccc(S(=O)(=O)NC3(C(=O)O)CC3c3ccccc3)s2)c(Cl)o1 (stereo not drawn) [Example 2-88]	≥ 10 µM	≥ 10 µM	≥ 10 µM			
CCC1(c2ccccc2)CC1(NS(=O)(=O)c1ccc(-c2ccc(Cl)cc2)s1)C(=O)O (stereo not drawn) [Example 2-129]	< 1 µM	≥ 10 µM	< 1 µM			
CC1[C@H](c2ccccc2)[C@]1(NS(=O)(=O)N1CCC(OCc2cc(Cl)ccc2Cl)C1)C(=O)O (stereo partly drawn) [Example 2-551]				≥ 1 µM	≥ 1 µM	≥ 1 µM
O=C(O)C1(NS(=O)(=O)c2cn3cc(-c4ccc(F)cc4)nc3s2)CC1c1ccccc1 (stereo not drawn) [Example 2-491]				< 0.1 µM	≥ 10 µM	≥ 1 µM
CC(C)NCC1(c2ccccc2)CC1(NS(=O)(=O)c1ccc(-c2ccc(Cl)cc2)s1)C(=O)O (stereo not drawn) [Example 2-392]				≥ 1 µM	≥ 10 µM	≥ 1 µM
C=CC1CC1(NS(=O)(=O)c1ccc(-c2ccc(Cl)cc2)s1)C(=O)O (stereo not drawn) [Example 2-46]	≥ 1 µM	≥ 10 µM	≥ 1 µM			
O=C(NCCc1cccc(C2CC2(NS(=O)(=O)c2ccc(-c3cc(C(F)(F)F)on3)s2)C(=O)O)c1)N1CCOCC1 (stereo not drawn) [Example 2-259]	< 0.1 µM	≥ 1 µM	< 0.1 µM			
CN(C)C(=O)Cc1ccc([C@@H]2C[C@]2(NS(=O)(=O)c2ccc(-c3cc(C(F)(F)F)on3)s2)C(=O)O)cc1 [Example 2-290]				< 0.1 µM	< 1 µM	< 0.1 µM
O=C(O)C1(NS(=O)(=O)c2ccc(-c3ccc(Cl)cc3)s2)CC1c1cccc(NS(=O)(=O)c2cccnc2)c1 (stereo not drawn) [Example 1-136]	< 0.1 µM	≥ 1 µM	< 0.1 µM			
O=C(O)C1(NS(=O)(=O)c2ccc(-c3ccc(Cl)cc3)s2)CC1(CCCn1cccn1)c1ccccc1 (stereo not drawn) [Example 2-273]				< 0.1 µM	< 1 µM	< 0.1 µM
